{
  "source": "patent US12138320B2",
  "about": "“Composition and methods for tumor imaging and treatment” (The University of Chicago, priority 2020, dated 2024)",
  "key": {"[1]": {"test_system": "other detected serine hydrolase targets", "assay": "Family-wide gel-based profiling of serine hydrolases in MDA-MB231 and PC3 cells (selectivity)", "assay_type": "cell-based, human", "settings": "live cells", "description": "Proteome Preparation: Human PC3 and MDA-MB231 cells were grown in Roswell Park Memorial Institute (RPMI) medium and Dulbecco's Modified Eagle Medium (DMEM), respectively, supplemented with 10% fetal bovine serum (FBS) and 2 mM L-glutamine, and cultured in a humidified 5% CO2 incubator at 37° C. Cells were washed twice with phosphate buffered saline (PBS, pH 7.5), collected by scraping, resuspended in 0.2 ml PBS, sonicated, and fractionated via centrifugation (100,000×g, 45 min) into a pellet (containing membrane proteins) and supernatant (containing soluble proteins). […] Protein concentrations were determined using a Bradford protein assay kit (Bio-Rad, Hercules, California, United States of America)). […]\nGel-based Activity Profiling: Cell lysates were treated with 1 μM fluorophosphonate-rhodamine (FP-rho) for 30 min at room temperature (50 μL total reaction volume). Reactions were quenched with one volume of standard 4× sodium dodecyl sulfate/polyacrylamide gel electrophoresis (SDS/PAGE) reducing sample buffer, resolved on 10% acrylamide SDS/PAGE gels, and visualized in-gel with a fluorescence scanner sold under the tradename CHEMIDOC™ MP (Bio-Rad, Hercules, California, United States of America). Densitometric quantification of band intensities were used to calculate the percent inhibition via JW199. […]"}, "[2]": {"target": "T1, NCEH1 (Homo sapiens, UniProt Q6PIU2)", "T1 construct": "serine hydrolase activity in membrane proteome fractions of MDA-MB231 breast cancer cells treated with the indicated concentrations; endogenous in cells; host or cells: PC3 prostate cancer cells; MDA-MB231 breast cancer cells", "T1 sequence (Q6PIU2 1-408)": "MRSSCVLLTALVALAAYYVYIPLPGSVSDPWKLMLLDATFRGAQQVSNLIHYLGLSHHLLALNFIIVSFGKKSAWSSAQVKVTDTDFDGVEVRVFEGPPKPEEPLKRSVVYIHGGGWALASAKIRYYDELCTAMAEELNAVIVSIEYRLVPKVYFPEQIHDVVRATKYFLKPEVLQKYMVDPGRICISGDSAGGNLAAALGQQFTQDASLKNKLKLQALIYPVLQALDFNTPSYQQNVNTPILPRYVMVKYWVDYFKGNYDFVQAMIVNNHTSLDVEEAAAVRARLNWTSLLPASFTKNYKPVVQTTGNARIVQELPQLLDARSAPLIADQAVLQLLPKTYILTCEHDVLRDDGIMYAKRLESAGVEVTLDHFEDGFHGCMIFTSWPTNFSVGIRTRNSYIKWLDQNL", "assay": "Gel-based competitive ABPP (FP-Rho) of cancer cells treated in situ (live cells)", "assay_type": "cell-based", "settings": "for potency against NCEH1 compared to JW199: MDA-MB231 cells treated in situ, 0-25 μM (FIG. 5B)", "description": "Proteome Preparation: Human PC3 and MDA-MB231 cells were grown in Roswell Park Memorial Institute (RPMI) medium and Dulbecco's Modified Eagle Medium (DMEM), respectively, supplemented with 10% fetal bovine serum (FBS) and 2 mM L-glutamine, and cultured in a humidified 5% CO2 incubator at 37° C. Cells were washed twice with phosphate buffered saline (PBS, pH 7.5), collected by scraping, resuspended in 0.2 ml PBS, sonicated, and fractionated via centrifugation (100,000×g, 45 min) into a pellet (containing membrane proteins) and supernatant (containing soluble proteins). For murine proteomes, mouse tissues were Dounce-homogenized on ice in cold PBS, followed by a low-speed spin (1,400×g, 5 min) to remove debris. After sonication, the membrane and soluble proteomes were fractionated as described above. All sample pellets were washed and resuspended in PBS via sonication. Protein concentrations were determined using a Bradford protein assay kit (Bio-Rad, Hercules, California, United States of America)). Samples were stored at −80° C. until use.\nCellular JW199 Treatments: JW199 was dissolved in dimethyl sulfoxide (DMSO) vehicle, which was diluted into media or buffer before addition to cells or proteomes, respectively. For in vitro proteome experiments, the final DMSO concentration was 4%. For live cell (in situ) treatments, 2×10^6 cells were seeded in 6 cm dishes (100% confluency) 24 hours prior to JW199 treatment in serum-free media. At the end of the experiment, cells were washed and collected, as described above, for gel-based activity profiling.\nGel-based Activity Profiling: Cell lysates were treated with 1 μM fluorophosphonate-rhodamine (FP-rho) for 30 min at room temperature (50 μL total reaction volume). Reactions were quenched with one volume of standard 4× sodium dodecyl sulfate/polyacrylamide gel electrophoresis (SDS/PAGE) reducing sample buffer, resolved on 10% acrylamide SDS/PAGE gels, and visualized in-gel with a fluorescence scanner sold under the tradename CHEMIDOC™ MP (Bio-Rad, Hercules, California, United States of America). Densitometric quantification of band intensities were used to calculate the percent inhibition via JW199. 50% inhibitory concentration (IC50) values were determined from dose-response curves constructed in GraphPad Prism software from three independent replicates for each inhibitor concentration. For competitive ABPP with JW576, tumor lysates were treated with 1 μM JW576 for 30 min at 37° C. (50 μL total reaction volume). Competitive ABPP was then conducted as described above. NCEH1 activity was calculated by densitometric quantification (ImageJ software; National Institutes of Health (NIH), Bethesda, Maryland, United States of America) of JW576-labeled band intensity (BODIPY fluorescence) from three independent replicates."}, "[3]": {"target": "T2, NCEH1 (Mus musculus, UniProt Q8BLF1)", "T2 construct": "For murine proteomes, mouse tissues were Dounce-homogenized on ice in cold PBS; from tissue; host or cells: athymic nude mice: heart, kidney, lung, liver, brain, spleen and other organs", "T2 sequence (Q8BLF1 1-408)": "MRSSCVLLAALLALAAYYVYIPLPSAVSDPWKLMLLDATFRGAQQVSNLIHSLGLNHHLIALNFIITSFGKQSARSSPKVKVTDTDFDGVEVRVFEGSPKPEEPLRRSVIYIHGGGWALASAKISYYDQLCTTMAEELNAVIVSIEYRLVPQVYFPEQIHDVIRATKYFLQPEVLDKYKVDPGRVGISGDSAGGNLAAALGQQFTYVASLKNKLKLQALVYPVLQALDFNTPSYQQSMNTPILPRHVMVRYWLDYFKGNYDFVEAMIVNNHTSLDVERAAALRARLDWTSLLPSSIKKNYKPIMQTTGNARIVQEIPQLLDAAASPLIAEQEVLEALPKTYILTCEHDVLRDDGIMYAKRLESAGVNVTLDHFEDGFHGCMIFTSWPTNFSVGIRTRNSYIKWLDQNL", "assay": "In vivo competition: oral JW480 pre-treatment, then i.v. [18F]JW199 and PET-CT", "description": "In vivo microPET/CT imaging: All imaging was performed by the Integrated Small Animal Imaging Research Resource (iSAIRR) at the University of Chicago (Chicago, Illinois, United States of America) on a β-Cube and X-Cube (Molecubes NV, Ghent, Belgium). Athymic nude mice (males and females, aged 6 to 8 weeks; HSD strain, Harlan-Envigo, Indianapolis, Indiana, United States of America) were anesthetized via inhalation with 1.5-2% isoflurane and injected with approximately 150 μCi (5.55 Megabecquerel (MBq)) of [^18F]JW199 in 150 μL of physiologic saline through the lateral tail vein, followed by awake incubation for 1 hour and 45 minutes. MicroCT images were acquired using the general purpose protocol, with energy of 50 KeV and a tube current of 100 μA. Respiration rate and body temperature of the animal were constantly monitored during the entire scanning period with the p-Cube and X-Cube onboard monitoring system. A 1 hr dynamic PET acquisition was started 2 hours after [^18F]JW199 injection. Dynamic reconstruction was performed for 6 frames of 10 minutes each using a three-dimensional (3D) OSEM algorithm with 400 μm isometric voxel size. For competition studies, mice were pretreated with either 80 mg/kg JW480 or vehicle (polyethylene glycol 300 (PEG300)) via oral gavage, followed 4 hours later by dosing with [^18F]JW199 and imaging as described. For the MDA-MB231 study, [^18F]JW199 injection was followed immediately by dynamic PET acquisition (90 min) and microCT scanning as detailed above. Dynamic PET image reconstruction included 9 frames of 10 minutes each.\nDynamic reconstruction was performed using a three-dimensional OSEM algorithm with 400 μm isometric voxel size. […] 3D regions of interest (ROIs) were drawn and standardized uptake values (SUVs) and percent injected dose per cubic centimeter of tissue (% ID/cc) were calculated for each ROI and time point. % ID/cc was calculated as a ratio of tissue radioactivity concentration (mCi/g) at time of scan to total injected activity (millicurie (mCi)) at time of scan."}, "[4]": {"target": "T2, NCEH1", "assay": "Gel-based competitive ABPP of murine tissue membrane proteomes after JW480 pre-treatment", "assay_type": "in vivo", "settings": "JW480 80 mg/kg; brain, heart, kidney, lung, liver, spleen membrane proteomes", "excerpt": "FIGS. 9A and 9B: Gel-based competitive activity-based protein profiling (ABPP) profiles of several murine membrane proteomes following treatment with fluorine-18-labeled 2-isopropylphenyl-(4-(2-fluoroethoxy)phenethyl)carbamate ([^18F]JW199) with and without 2-isopropylphenyl)-(2-(naphthalen-2-yl)ethyl)carbamate (JW480; 80 milligrams per kilogram (mg/kg)). FIG. 9A is a schematic drawing showing the chemical structure of JW480. FIG. 9B is a composite gel image of the ABPP profiles of the murine membrane proteomes from brain, heart, kidney, lung, liver and spleen following treatment with [^18F]JW199 with or without JW480.\nProteome Preparation: Human PC3 and MDA-MB231 cells were grown in Roswell Park Memorial Institute (RPMI) medium and Dulbecco's Modified Eagle Medium (DMEM), respectively, supplemented with 10% fetal bovine serum (FBS) and 2 mM L-glutamine, and cultured in a humidified 5% CO2 incubator at 37° C. […] Protein concentrations were determined using a Bradford protein assay kit (Bio-Rad, Hercules, California, United States of America)). […]\nGel-based Activity Profiling: Cell lysates were treated with 1 μM fluorophosphonate-rhodamine (FP-rho) for 30 min at room temperature (50 μL total reaction volume). […] Densitometric quantification of band intensities were used to calculate the percent inhibition via JW199. […]"}},
  "data": [
    {"smiles": "CC(C)c1ccccc1OC(=O)NCCc1ccc(OCCF)cc1", "note": "[JW199, 2-isopropylphenyl-(4-(2-fluoroethoxy)phenethyl)carbamate]", "values": [
      {"measurement": "selectivity over other detected serine hydrolase targets", "setting": "[1]", "result": "> 1,000 fold"},
      {"measurement": "IC50 values, inhibition of NCEH1 in live cells", "setting": "[2]; in situ, MDA-MB231 and PC3 cells", "result": "low nM range"}
    ]},
    {"smiles": "CC(C)c1ccccc1OC(=O)NCCc1ccc2ccccc2c1", "note": "[JW480, 2-isopropylphenyl-(2-(naphthalen-2-yl)ethyl)carbamate]", "values": [
      {"measurement": "effect of pre-treatment on radioactivity in urine and brain", "setting": "[3]; JW480 80 mg/kg oral, 4 hours before tracer", "result": "slightly elevated radioactivity"},
      {"measurement": "effect of pre-treatment on [18F]JW199 radiotracer signal in heart, lung and kidney", "setting": "[3]; JW480 80 mg/kg oral, 4 hours before tracer, 3 hours post injection", "result": "significantly diminished radiotracer signal"},
      {"measurement": "[18F]JW199 accumulation in kidneys and heart of competitor-treated mouse (PET-CT images)", "setting": "[3]; JW480 oral, then i.v. tracer", "result": "visibly decreased"},
      {"measurement": "inhibition of NCEH1 in tissues of pre-treated mice", "setting": "[4]", "result": "specific and significant inhibition"}
    ]},
    {"smiles": "CC(C)c1ccccc1OC(=O)NCCNC(=O)c1ccc2cc(OCCF)ccc2c1", "note": "[JW291, 2-isopropylphenyl (2-(6-(2-fluoroethoxy)-2-naphthamido)ethyl)carbamate]", "values": [
      {"measurement": "potency against NCEH1 compared to JW199", "setting": "[2]", "result": "less potent"}
    ]},
    {"smiles": "CC(C)c1ccccc1OC(=O)NCCc1ccc(OCCCF)cc1", "note": "[JW245, 2-isopropylphenyl-(4-(3-fluoropropoxy)phenethyl)carbamate]", "values": [
      {"measurement": "potency against NCEH1 compared to JW199", "setting": "[2]", "result": "less potent"}
    ]}
  ]
}
